Measurements published in patent US5863916A, “8-aza, 6-aza and 6,8-diaza-1,4-dihydroquinoxaline-2,3-diones and the use thereof as antagonists for the glycine/NMDA receptor” (priority 1997, dated 1999).

Tests used:
[1] = test system: glycine binding site of the NMDA receptor; conditions: cited from earlier work
MES-induced seizures = experiment: anticonvulsant activity, maximum electroshock-induced seizure (MES) experiment in mice; type: in vivo, mouse; conditions: for ED50: Mus musculus, iv, read-out: ED50 as an anticonvulsant in MES experiment
Method: The anticonvulsant activity of the glycine antagonists may be assessed in the maximum electroshock-induced seizure (MES) assay in mice. […] The seizure stimulus parameters were: 50 mA, 60 Hz, rectangular pulse, width 0.8 msec, duration 200 msec. Tonic hind limb extension observed after application of the electrical stimulus was recorded as occurrence of seizure. The drug was applied i.v. as an aqueous basic solution.

glycine/NMDA receptor = glycine/NMDA receptor affinity (1 μM glycine-stimulated [3H]-MK801 binding, rat brain membranes; also estimated by electrophysiology)
Method: The assay is conducted using rat brain membrane homogenates that are enriched in NMDA receptors. The membranes are prepared as follows. Frozen rat brains (obtained from Pel-Freez, Rogers, Ark.) are homogenized in 15 volumes (w/v) of ice cold 0.32M sucrose. The homogenate is spun at 1,000×g for ten minutes. The supernatant is collected and spun for 20 minutes at 44,000×g. The pellet is suspended in 15 volumes of water (relative to original brain weight). The homogenate is again spun at 44,000×g for twenty minutes. The pellet is resuspended in 5 volumes of water and the suspension is freeze-thawed 2 times. After the final thaw cycle, the suspension is brought to 15 volumes with water and spun at 44,000×g for twenty minutes. The pellet is resuspended in 5 volumes of ice-cold 10 mM HEPES, and is titrated to pH 7.4 with KOH containing 0.04% Triton X-100. […] The volume is then brought to 15 with ice-cold 10 mM HEPES, pH 7.4, and spun/washed three times with spins of 44,000×g between washes. The final pellet is suspended in three volumes of 50 mM HEPES, pH 7.4 and the protein concentration is determined with a standard dye-binding protein assay (Bio-Rad, Richmond, Calif.). The suspension is stored at -80° C. until used. Only HPLC grade water is used for all buffers and suspensions/washings. The extensive washings are necessary to remove as much endogenous glycine from the membrane preparation as possible.
Nonspecific binding is defined as the […] presence of PCP (final concentration: 100 μM). […] A 500 nM concentration (final) of 5,7-dichlorokynurenic (DCK) acid is added to all assay tubes. This concentration of the glycine antagonist DCK "buffers" most of the residual endogenous glycine that is not removed by the extensive washing steps that are carried out during the membrane preparation procedure.
Filtration is accomplished using a Brandel 48 well cell harvester. Filtered membranes are washed three times with 3 mL each of ice cold buffer. Filters are transferred to scintillation vials and 5 mL of scintillation cocktail is added. The vials are shaken overnight and the radioactivity is counted by liquid scintillation spectroscopy. The assays are done in triplicate and all experiments are conducted at least three times.
(§1) The binding affinities at NMDA receptor glycine sites also were estimated by electrophysiological assay either using cloned rat NMDA receptors expressed in Xenopus oocytes, or non-NMDA receptors expressed in oocytes by whole rat brain poly(A)^+ RNA. […] For NMDA receptors Kb s were approximated by averaging values at three subtype combinations (NR1A/NR2A, NR1A/NR2B, and NR1A/NR2C).

[2] = test system: MES-induced tonic clonic seizures; experiment: Example 35: time course and potency in maximum electroshock (MES) model, i.v., mice; type: in vivo, Swiss-Webster mouse; conditions: for protection of mice at the lowest dose: 2 minutes; for animals showing no tonic seizures: 2 minutes after i.v. 5 mg/kg (6-chloro-8-(N-oxy)aza) or 10 mg/kg (6-chloro-7-methyl-8-(N-oxy)aza); for mice protected against seizures: 15 minutes after i.v. 5 mg/kg (6-chloro-8-(N-oxy)aza) or 10 mg/kg (6-chloro-7-methyl-8-(N-oxy)aza); for ED50: Mus musculus, iv, 2 min, Litchfield and Wilcoxon, read-out: ED50, inhibition of MES-induced seizures; for ED50 / 95% confidence limits of ED50 / inhibition of MES-induced seizures / time of maximal anti-MES effect: i.v.; for ED50 / 95% confidence limits of ED50: 2 minutes post injection; for efficacy in inhibiting MES-induced tonic seizures over time: i.v. time course, 2-60 minutes; for inhibition of MES-induced seizures: dose dependence; for time of maximal anti-MES effect: post-injection
Text: The objectives of the studies were to determine the time of maximal effect and potency for compounds 6-chloro-8-(N-oxy)aza-1,4-dihydroquinoxaline-2,3-dione and 6-chloro-7-methyl-8-(N-oxy)aza-1,4-dihydroquinoxaline-2,3-dione in the inhibition of maximal electroshock (MES)-induced tonic clonic seizures following intravenous (i.v.) administration in mice.
The time-course study involved a one-factor, between groups design in which animals were divided into groups based on the time between administration of 6-chloro-8-(N-oxy)aza-1,4-dihydroquinoxaline-2,3-dione and 6-chloro-7-methyl-8-(N-oxy)aza-1,4-dihydroquinoxaline-2,3-dione and the MES stimulus. Similarly, the potency study involved a one-factor, between group design in which animals were divided into groups based on drug dose. Each group in both studies consisted of 8 animals.
6-Chloro-8-(N-oxy)aza-1,4-dihydroquinoxaline-2,3-dione and 6-chloro-7-methyl-8-(N-oxy)aza-1,4-dihydroquinoxaline-2,3-dione were dissolved in 0.05M Tris (J. T. Baker) at concentrations of 5 mg/mL and 2.5 mg/mL, respectively.
Experiments were conducted with Swiss-Webster male mice (Simonsen Lab. Inc.). Mice were 5-6 weeks old and weighed 18-24 g upon arrival in the laboratory. In the time course study, mice were treated with an i.v. injection of 6-chloro-8-(N-oxy)aza-1,4-dihydroquinoxaline-2,3-dione (5 mg/kg) or 6-chloro-7-methyl-8-(N-oxy)aza-1,4-dihydroquinoxaline-2,3-dione(10 mg/kg) or vehicle. Mice were tested at 2, 15, 30, or 60 minutes after vehicle or drug administration. […] The electroshock device was a Ugo Basile ECT Unit 7801 (Varese, Italy; Model 24093). The electroshock characteristics were as follows: 50 mA, 60 pulses per second, […], and a 0.2 second train length. […] Tonic seizures were defined as the tonic extension of the forelimbs and hindlimbs. […] Therefore, the result from each animal was an all-or-none phenomenon with either a seizure present or absent following the shock administration. The time point at which 6-chloro-8-(N-oxy)aza-1,4-dihydroquinoxaline-2,3-dione and 6-chloro-7-methyl-8-(N-oxy)aza-1,4-dihydroquinoxaline-2,3-dione produced a maximal response was determinated by analyzing the graphical results. The dose at which 50% of the animals were protected against MES-induced seizures (ED50) was calculated by Litchfield and Wilcoxon Method (Pharm/PCS R. J. Tallarida & R. B. Murray Version 4.2).

[3] = test system: focal cerebral ischemia (MCA occlusion); experiment: rat model of permanent focal cerebral ischemia (MCA occlusion), infarct volume; type: in vivo, Sprague-Dawley rat
Method: Male Sprague-Dawley rats ([…]) were intubated and maintained under anesthesia with ±2% of halothane. Body temperature was maintained at 37.5° C. during surgery by means of a warming pad and a rectal probe connected to the control unit. The common carotid arteries (CCA) were isolated and a loose silk ligature was placed around each CCA. A vertical skin incision was made between the left orbit and the auditory canal, posterior part of zygoma removed, and a small opening (2.0/2.5 mm) drilled dorsorostrally to the foramen ovale under constant saline irrigation. The dura was opened with a microsurgical hook and the brain gently retracted with a fine spatula to expose the bifurcation of the internal carotid artery and the middle cerebral artery. The ipsilateral CCA was ligated and the MCA coagulated from its origin to the olfactory tract. Two hours after MCA occlusion, the clip from the contralateral CCA was removed. […]
Brains were sliced into 2 mm blocks and stained with tetrazolium red (2,3,5-triphenyl tetrazolium chloride). The areas of brain damage were assessed using an image analyzer (Image-1, Universal Imaging Corporation, PA) to determine the volume of cortical and subcortical infarction by integration of areas and the distance between each level.

[4] = blood-brain-barrier crossing inferred from Ki and MES ED50; type: in vivo, mouse
non-NMDA receptor = non-NMDA receptor affinity; type: binding, rat
Method: (§2) Filtered membranes are washed three times with 3 mL each of ice cold buffer.
as §2, §1

katalepsy = conditions: pigeons; cited from earlier work
[5] = test system: PCP-like behavioral effects; conditions: in vivo; cited from earlier work
brain ischemia / neurons = conditions: cited from earlier work
[6] = 20 mg/kg bolus + 14 mg/kg/h for 22 h, 30 min after MCA occlusion

O=C(O)c1cc(O)c2c(Cl)cc(Cl)cc2n1 [5,7-dichlorokynurenic acid]
receptor binding affinity in vitro [1]: relatively high receptor binding affinity in vitro

O=c1[nH]c2cc(Cl)c(Cl)[n+]([O-])c2[nH]c1=O [6,7-Dichloro-8(N-oxy)aza-1,4-dihydroquinoxaline-2,3-dione]
ED50 (MES-induced seizures): 7.5 mg/kg
Ki (glycine/NMDA receptor): 100 nM

O=c1[nH]c2cc(Cl)c(Cl)c([N+](=O)[O-])c2[nH]c1=O [6,7-dichloro-5-nitro-1,4-dihydroquinoxaline-2,3-dione, reference compound]
ED50 as an anticonvulsant in MES experiment (MES-induced seizures): 4 to 5 mg/kg
Ki (glycine/NMDA receptor): 3.3 nM

O=c1[nH]c2cc(Br)c[n+]([O-])c2[nH]c1=O [6-Bromo-8-(N-oxy)aza-1,4-dihydroquinoxaline-2,3-dione]
ED50 (MES-induced seizures): 1 to 1.5 mg/kg
Ki (glycine/NMDA receptor): 1000 nM

Cc1c(Cl)cc2[nH]c(=O)c(=O)[nH]c2[n+]1[O-] [6-Chloro-7-methyl-8-(N-oxy)aza-1,4-dihydroquinoxaline-2,3-dione]
protection of mice at the lowest dose ([2]; 4 mg/kg i.v.): 12.5%
animals showing no tonic seizures [2]: 8/8
mice protected against seizures [2]: 3/8
ED50 [2]: 6.71 mg/kg
efficacy in inhibiting MES-induced tonic seizures over time [2]: decreased over one hour
95% confidence limits of ED50 [2]: 5.48 to 8.22 mg/kg
inhibition of MES-induced seizures [2]: dose dependently, inhibited MES-induced seizures
time of maximal anti-MES effect [2]: 2 min
ED50 (MES-induced seizures): 7 mg/kg
Ki (glycine/NMDA receptor): 50 nM

[O-][n+]1cc(Cl)cc2nc(O)c(O)nc21 [6-Chloro-8-(N-oxy)aza-1,4-dihydroquinoxaline-2,3-dione]
protection of mice at the lowest dose ([2]; 0.5 mg/kg i.v.): 25%
animals showing no tonic seizures [2]: 8/8
mice protected against seizures [2]: 4/8
ED50 [2]: 1.26 mg/kg
efficacy in inhibiting MES-induced tonic seizures over time [2]: decreased over one hour
95% confidence limits of ED50 [2]: 0.94 to 1.67 mg/kg
inhibition of MES-induced seizures [2]: dose dependently, inhibited MES-induced seizures
time of maximal anti-MES effect [2]: 2 min
ED50 (MES-induced seizures): 1 to 1.5 mg/kg
protection at the lower dose ([3]; 10 mg/kg bolus + 7 mg/kg/h for 22 h, immediately after MCA occlusion): no protection
reduction in cortical infarct volume [3, 6]: 70%
reduction in subcortex infarct volume [3, 6]: 35%
reduction in cortical infarct volume ([3]; 20 mg/kg bolus + 14 mg/kg/h for 22 h i.v., immediately after MCA occlusion): 67%
neuroprotection ([3]; rat model of focal ischemia): significant neuroprotection
Ki (glycine/NMDA receptor): 600 nM
blood-brain-barrier crossing relative to 6,7-dichloro-5-nitro-1,4-dihydroquinoxaline-2,3-dione [4]: about 1000 times

Cc1cc2[nH]c(=O)c(=O)[nH]c2[n+]([O-])c1 [6-Methyl-8-(N-oxy)aza-1,4-dihydroquinoxaline-2,3-dione]
ED50 (MES-induced seizures): 1 to 1.5 mg/kg
Ki (glycine/NMDA receptor): 2400 nM

O=C(O)c1cc(O)c2ccc(Cl)cc2n1 [7-Cl-kynurenic acid]
receptor binding affinity in vitro [1]: relatively high receptor binding affinity in vitro

O=c1[nH]c2cc(Cl)cnc2[nH]c1=O [Compound 5, 6-Chloro-8-aza-1,4-dihydroquinoxaline-2,3-dione]
activity relative to corresponding QX (glycine/NMDA receptor): about as active as the corresponding 6-chloro-QX

O=c1[nH]c2cc(Cl)c(Cl)nc2[nH]c1=O [Compound 6, 6,7-Dichloro-8-aza-1,4-dihydroquinoxaline-2,3-dione]
Ki (glycine/NMDA receptor): ~200 nM

Cc1nc2[nH]c(=O)c(=O)[nH]c2cc1Br [Compound 8, 6-Bromo-7-methyl-8-aza-1,4-dihydroquinoxaline-2,3-dione]
Ki (glycine/NMDA receptor): ~200 nM

O=c1[nH]c2ccncc2[nH]c1=O [Compound 11, 6-Aza-1,4-dihydroquinoxaline-2,3-dione]
activity relative to corresponding QX (glycine/NMDA receptor): about as active as QX

O=c1[nH]c2cncnc2[nH]c1=O [Compound 13, 6,8-Diaza-1,4-dihydroquinoxaline-2,3-dione]
activity relative to corresponding QX (glycine/NMDA receptor): about as active as QX

O=c1[nH]c2cc([N+](=O)[O-])c[n+]([O-])c2[nH]c1=O [Compound 64, 7-Nitro-5-(N-oxy)aza-1,4-dihydroquinoxaline-2,3-dione]
Ki (non-NMDA receptor): 340 nM
ED50 (MES-induced seizures): 3 to 4 mg/kg
Ki (glycine/NMDA receptor): 130 nM

NC1CCN(O)C1=O (stereo not shown) [HA-966]
agonist character [1]: partial agonist
receptor binding affinity in vitro [1]: micromolar affinity for the glycine binding site

c1ccc(C2(N3CCCCC3)CCCCC2)cc1 [PCP, phencyclidine]
katalepsy (katalepsy): characteristic katalepsy in pigeons
PCP-like behavioral side effects [5]: behavioral excitation (hyperlocomotion) in rodents
neuroprotective efficacy (brain ischemia / neurons): neuroprotective efficacy both in vitro and in vivo

COc1ccc2c(c1)[C@]13CCCC[C@@H]1[C@H](C2)N(C)CC3 [dextromethorphan]
neuroprotective efficacy (brain ischemia / neurons): neuroprotective efficacy both in vitro and in vivo

O=C(O)c1cc2ccccc2[nH]1 [indole-2-carboxylic acid]
receptor binding affinity in vitro [1]: relatively high receptor binding affinity in vitro

CNC1(c2ccccc2Cl)CCCCC1=O (stereo not shown) [ketamine]
neuroprotective efficacy (brain ischemia / neurons): neuroprotective efficacy both in vitro and in vivo
